One series relates to subgenomic HAV RNA. The series is described as follows: Subgenomic HAV RNA replicon replication in transfected Huh-7.5 cells. The class given is cell-based, hepatitis A virus. How it is done:
FIG. 4i Inhibition of subgenomic HAV/NLuc RNA replication in the transfected Huh-7.5 cells by three different mTOR inhibitors and DAA (30 μM 2′CMA). **P<0.01 vs. DMSO control group (one-way analysis of variance with Dunnett's multiple comparison test).
In vitro transcription of HAV or HCV RNA was performed with T7 RiboMAX Express Large Scale RNA production system (Promega) according to the manufacturer's protocol. Transfection of viral RNA was carried out in Gene Pulser Xcell Total System (Bio-Rad Laboratories) as previously described^33, or with TransIT-mRNAtransfection kit (Mirus) for HAV-Luc RNA as previously described^32.
(§1) GLuc analysis of HCV replication and dual luciferase assay for analyzing the transcriptional induction were carried out according to the previously described methods^31,32. NanoLuc activity was determined with Nano-Glo Luciferase Assay System (Promega) according to the manufacture's protocol. For virus replication assays, the medium was replaced with a drug-containing medium at 1 hour post inoculation.
On the technique in general: Replicon systems follow genome replication, usually without infectious particles.

Series [1] concerns HAV expressing NanoLuc reporter (18f strain, HAV/NLuc). Briefly: HAV/NLuc reporter virus replication in HuH-7 cells (NanoLuc activity). Type of series: cell-based, hepatitis A virus. The settings on record: for virus replication compared to rapalogs that target mTOR alone: HAV, dual mTOR/PI3K inhibitors; for virus replication level reduced to (NanoLuc activity): highest dose (10 μM); for viral replication level reduced to (NanoLuc activity): HuH-7 cells infected with HAV/NLuc, drug given 1 hour after infection, 48 hours post-infection. How it is done: (§2) HuH-7 cells were infected with HAV/NLuc and drugs were given 1 hour after infection. 48 hours later, NanoLuc activities were measured to evaluate the virus replication levels. In addition, WST-8 reagent (Cell Counting Kit-8, Dojindo) was used to evaluate cell viability after the drug treatment.
pHM175/18f-NLuc plasmid was prepared by PCR amplification of the NLuc open reading frame using pNL1.1 plasmid (Promega) as a template and primers containing a triglycine sequence flanked by XbaI and BamHI restriction enzyme sites. This PCR product was digested with these enzymes and ligated into similarly digested pSK-2A-Zeo-2B plasmid^36 to give pSK-2A-NLuc-2B plasmid. This plasmid was further digested with SacI/PflMI to cleave out the entire 2A-NLuc-2B fragment, which was ligated into similarly digested HM175/18f parental plasmid^37 to give pHM175/18f-NLuc reporter virus.
as §1

Series [2] deals with HAV. The series is described as follows: HAV-infected mouse model, viral RNA shed in feces (real-time PCR). The class given is in vivo. The settings on record: Ifnar1-/- C57BL/6 mice, 15 mg/kg orally from Day 5 after infection, daily for 14 days except Day 9 and Day 16. On the procedure:
Type-I interferon receptor (Ifnar1)-knockout C57BL/6 mice were infected by tail vein injection of the virus equivalent to 1.7×10^9 genome copy number. Pictilisib (15 mg/kg) was administered 5 days after infection and viral RNA contained in the later shed feces was quantified by real-time PCR to analyze the antiviral action of the drug (Reference 3).
The drug was orally administered from Day 5 following the infection and continuously administered daily for 14-consecutive days except Day 9 and Day 16. The viral RNA levels shed in the feces reflect the viral load in the liver and thus the viral RNA levels in the feces were quantified. As a result, the viral RNA level was reduced to about one-tenth by administration of the drug, confirming its antiviral effect (FIG. 6).
Virus: HAV-HM175 strain, 1.7×10^9 GE, iv route
Vehicle: 0.5% methyl cellulose/0.2% Tween 80
Mice: Ifnar1^−/− C57BL/6, 5 animals/group
The drug was orally administered from Day 5 following the infection for 14 consecutive days except Day 9 and Day 16. Viral level in the feces was quantified with time because it can serve as an indicator that reflects the viral level in the liver.
On the technique in general: In qPCR the cycle at which signal appears reflects the starting amount.

For series [3] the following is noted: phase II trial; cited from earlier work.
In the next series the test system is HuH-7 cells. The series is described as follows: Cell viability after drug treatment (WST-8, Cell Counting Kit-8). The class given is cell-based, human. The following applies: at concentrations that suppress virus replication. How it is done:
as §2
MicroRNA-122 mimics were synthesized by Dharmacon and transfected as miRNA/miRNA* duplex by electroporation as previously described^33. Puromycin, Blasticidin and Ruxolitinib were purchased from InvivoGen. Pyridone 6 was obtained from EMD Millipore. Recombinant human IFN-λ1 and IFN-α and actinomycin D were purchased from Sigma-Aldrich. Recombinant human IFN-γ was obtained from PeproTech. PSI-7977 (sofosbuvir) was obtained from ChemScene and 2′-C-methyl adenosine (2′ CMA) was obtained from Santa Cruz Biotechnology. Cell viabilities were determined using Cell Counting Kit-8 (Dojindo) on 96-well plates according to the manufacturer's protocol.
On the technique in general: Tetrazolium assays rely on reduction of a dye to a coloured formazan, in cell work by metabolically active cells.

The next series relates to HCV. The series is described as follows: HCV replication in Huh-7.5 cells. The class given is cell-based, hepatitis C virus. The settings on record: RARRES3 overexpression. On the procedure: (§3) High-titer HAV (HM175/18f strain) was mycoplasma-free and was prepared as previously described^34. HAV infection was performed at a multiplicity of infection (MOI) of 10. SeV (Cantell strain) was obtained from Charles River Laboratories, and was inoculated at 50 U ml^−1 unless otherwise indicated. Infection with HCV-carrying Gaussia luciferase (GLuc) reporter was performed as previously described^32. DENV serotype 2 (olSa-054 strain) and ZIKV (MR-766 and AB-59 strains) were propagated in Vero, C6/36 or Huh-7.5 cells and inoculated at MOI=1 as previously described^35.
as §1

In another series the test system is DENV. The series is described as follows: DENV replication in Huh-7.5 cells. The class given is cell-based, dengue virus. The settings on record: RARRES3 overexpression. How it is done: as §3
Plasmids encoding capsid and subgenomic RNA containing NS1-5 regions fused with a NanoLuc reporter flanked by 5′ and 3′ untranslated RNAs derived from DENV1 (D1/Hu/Saitama/NIID100/2014 strain) and DENV2-derived premembrane and envelope protein (olSa-054 strain) were transfected into HEK293T cells. Infectious virons secreted in the supernatant were harvested according to the previously described method^38.
Primer pair targeting DENV genomic RNA, 5′-[…]-3′ (SEQ ID NO:57) and 5′-CATCATTAAGTCGAGGGCC-3′ (SEQ ID NO:58), or primer pair targeting ZIKV genomic RNA, 5′-[…]-3′ (SEQ ID NO:59) and 5′[…]-3′ (SEQ ID NO:60) was used with RNA-direct SYBR Green Realtime PCR Master Mix (TOYOBO) to quantify DENV and ZIKV RNA abundance.

Series [4] has as its system human rhinovirus 14 (HRV-14). Briefly: HRV-14 replication with RARRES3 overexpression. Type of series: cell-based.
Series [5] relates to HAV. The series is described as follows: HAV replication in cells overexpressing RARRES3 or C113S mutant (lentiviral vectors). Type of series: cell-based, hepatitis A virus. The following applies: cells overexpressing the protein.
The test system of series [6] is HAV. Briefly: HAV replication in Huh-7.5 cells. Type of series: cell-based, hepatitis A virus. The following applies: IRF1-dependent. On the procedure:
as §3
Total RNA extraction was performed using RNeasy Mini Kit (QIAGEN), QIAamp viral RNA Mini Kit (QIAGEN) or TRIzol (Thermo Fisher). HAV genomic RNA was detected by a two-step RT-qPCR analysis using SuperScript III First-Strand Synthesis System (Thermo Fisher Scientific) and iTaq Universal SYBR Green Supermix (Bio-Rad Laboratories), or Thunderbird SYBR qPCR Mix (TOYOBO). 5′-GGTAGGCTACGGGTGAAAC-3′ (SEQ ID NO:3) and 5′-[…]-3′ (SEQ ID NO:4) were used as HAV-specific primers

The source of these data is patent US20210315970A1, “Hepatitis A Virus Replication Inhibitor Targeting mTOR” (Tokyo Metropolitan Institute of Medical Science, priority 2020, published 2021).

With `C[C@@]1(O)[C@H](O)[C@@H](CO)O[C@H]1n1cnc2c(N)ncnc21` [2′CMA, 2′-C-methyl adenosine], the “subgenomic HAV/NLuc RNA replication” value in the series with subgenomic HAV RNA (transfected Huh-7.5 cells, 2′CMA 30 μM) is “Inhibition”.

As for `Oc1cccc(-c2nc(N3CCOCC3)c3oc4ncccc4c3n2)c1` [PI-103], in series [1], the “virus replication compared to rapalogs that target mTOR alone” value is given as “one-tenth”. Besides, the “virus replication level reduced to (NanoLuc activity)” value in [1] (HAV/NLuc-infected cells) is given as “about one-thousandth”.

Take `CS(=O)(=O)N1CCN(Cc2cc3nc(-c4cccc5[nH]ncc45)nc(N4CCOCC4)c3s2)CC1` [Pictilisib]: the “virus replication compared to rapalogs that target mTOR alone” value in series [1] is listed as “one-tenth”. Further, the “virus replication level reduced to (NanoLuc activity)” value in series [1] (HAV/NLuc-infected cells) is on record as “about one-thousandth”. Besides, the “viral RNA level in the feces reduced to” value with HAV [2] is recorded as “about one-tenth”. Further, the safety to human result in [3] is given as “confirmed to be safe to human”.

For `CCC(=O)N1CCN(c2ccc(-n3c(=O)ccc4cnc5ccc(-c6cnc7ccccc7c6)cc5c43)cc2C(F)(F)F)CC1` [Torin-1, 1-[4-[4-(1-oxopropyl)-1-piperazinyl]-3-(trifluoromethyl)phenyl]-9-(3-quinolinyl)-benzo[h]-1,6-naphthyridin-2(1H)-one], the “HAV replication (effect in words)” value in series [1] (HAV/NLuc-infected cells) is “suppressed strongly”. For the same molecule, the “viral replication level reduced to (NanoLuc activity)” value (“viral replication level reduced” below) in series [1] is reported as “one-hundredth”. Further, the cell viability entry in the series on HuH-7 cells is listed as “without having an influence on the cell viability”.

For the molecule `CO[C@H]1C[C@@H]2CC[C@@H](C)[C@@](O)(O2)C(=O)C(=O)N2CCCC[C@H]2C(=O)O[C@H]([C@H](C)C[C@@H]2CC[C@@H](OCCO)[C@H](OC)C2)CC(=O)[C@H](C)/C=C(\C)[C@@H](O)[C@@H](OC)C(=O)[C@H](C)C[C@H](C)/C=C/C=C/C=C/1C` [everolimus], in [1], the “viral replication level reduced” value is reported as “one-twentieth”. Moreover, the cell viability result in the series with HuH-7 cells is recorded as “without having an influence on the cell viability”.

For `CO[C@H]1C[C@@H]2CC[C@@H](C)[C@@](O)(O2)C(=O)C(=O)N2CCCC[C@H]2C(=O)O[C@H]([C@H](C)C[C@@H]2CC[C@@H](O)[C@H](OC)C2)CC(=O)[C@H](C)/C=C(\C)[C@@H](O)[C@@H](OC)C(=O)[C@H](C)C[C@H](C)/C=C/C=C/C=C/1C` [rapamycin], the cell viability entry in the series with HuH-7 cells is “without having an influence on the cell viability”.

On to `CO[C@H]1C[C@@H]2CC[C@@H](C)[C@@](O)(O2)C(=O)C(=O)N2CCCC[C@H]2C(=O)O[C@H]([C@H](C)C[C@@H]2CC[C@@H](OC(=O)C(C)(CO)CO)[C@H](OC)C2)CC(=O)[C@H](C)/C=C(\C)[C@@H](O)[C@@H](OC)C(=O)[C@H](C)C[C@H](C)/C=C/C=C/C=C/1C` [temsirolimus], for which the “viral replication level reduced” value in series [1] was “one-twentieth”. In the series with HuH-7 cells, the cell viability entry was “without having an influence on the cell viability”.

B1: RARRES3: retinoic acid receptor responder protein 3, SEQ ID NO:2, phospholipase A / acyltransferase activity (protein, listed as Homo sapiens)
chain: MASPHQEPKPGDLIEIFRLGYEHWALYIGDGYVIHLAPPSEYPGAGSSSVFSVLSNSAEVKRERLEDVVGGCCYRVNNSLDHEYQPRPVEVIISSAKEMVGQKMKYSIVSRNCEHFVTQLRYGKSRCKQVEKAKVEVGVATALGILVVAGCSFAIRRYQKKATA
Regarding B1, in the series with subgenomic HAV RNA (Huh-7.5 cells expressing RARRES3), the “replication of subgenomic RNA replicon” value is recorded as “suppressed”. For the same molecule, the HCV replication result in the series with HCV was “did not restrict”. Further, in the series on DENV, the DENV replication entry was “did not restrict”. Also, the HRV-14 replication result in series [4] was “did not restrict”. Moreover, the HAV replication entry with HAV [5] is reported as “strongly suppressed”.

B2: IFN-γ: Recombinant human IFN-γ obtained from PeproTech (protein, UniProt P01579 24-161, looked up)
Interferon gamma: QDPYVKEAENLKKYFNAGHSDVADNGTLFLGILKNWKEESDRKIMQSQIVSFYFKLFKNFKDDQSIQKSVETIKEDMNVKFFNSNKKKRDDFEKLTNYSVTDLNVQRKAIHELIQVMAELSPAAKTGKRKRSQMLFRG
On to B2, for which, in the series on HAV [6], the HAV replication result is given as “restricted HAV replication”.
